Test results as given in patent US20250171516A1, “PEPTIDE ACIDS AS A GLP1R AGONIST AND ANTIBODY-DRUG CONJUGATES THEREOF” (Regeneron Pharmaceuticals, Inc., priority 2023, published 2025).
Read-outs that look alike come from different tables or passages of the source. Starred links: 1 amine or outer side, 2 acyl side, 3 side chain; linkers in the order of their positions; H or OH if unused. Non-standard residues stand in square brackets, D forms with d. Residues, ends and D or L forms follow the SMILES beside them. Groups on a side chain read outwards from the residue. ξ: configuration not given here. *: point of attachment. X3 = CCc1cc(OCCCCn2cc(COCCOCCOCCOCCOCCOCCOCCOCCOCCOCCOCCOCCN)nn2)ccc1-c1ccc(C[C@H](N[*:1])C(=O)[*:2])cc1; X2 = CCc1cc(OCCCCn2cc(COCCOCCOCCOCCOCCOCCOCCOCCN[*:3])nn2)ccc1-c1ccc(C[C@H](N[*:1])C(=O)[*:2])cc1; X1 = CCc1cc(OCCCCn2cc(COCCOCCOCCOCCOCCOCCOCCOCCN)nn2)ccc1-c1ccc(C[C@H](N[*:1])C(=O)[*:2])cc1; Bip(2'-Et,4'-O(CH2)4N3) = CCc1cc(OCCCCN=[N+]=[N-])ccc1-c1ccc(C[C@H](N)C(=O)O)cc1; Malonyl(2,2-Me2,histaminyl) = CC(C)(C(=O)NCCc1cnc[nH]1)C(=O)*; Nva(5-(3,5-Me2Ph)) = Cc1cc(C)cc(CCC[C@H](N)C(=O)O)c1; Ala(1H-tetrazol-5-yl) = N[C@@H](Cc1nnn[nH]1)C(=O)O; αMePhe(2-F) = C[C@](N)(Cc1ccccc1F)C(=O)O; γGlu = O=C(O)[C@H](CCC(=O)[*:2])N[*:1]; ξαMePhe(2-F) = CC(N)(Cc1ccccc1F)C(=O)O; tBu = CC(C)(C)*

Target: GLP-1R (Homo sapiens, UniProt P43220)
Sequence (P43220 24-463): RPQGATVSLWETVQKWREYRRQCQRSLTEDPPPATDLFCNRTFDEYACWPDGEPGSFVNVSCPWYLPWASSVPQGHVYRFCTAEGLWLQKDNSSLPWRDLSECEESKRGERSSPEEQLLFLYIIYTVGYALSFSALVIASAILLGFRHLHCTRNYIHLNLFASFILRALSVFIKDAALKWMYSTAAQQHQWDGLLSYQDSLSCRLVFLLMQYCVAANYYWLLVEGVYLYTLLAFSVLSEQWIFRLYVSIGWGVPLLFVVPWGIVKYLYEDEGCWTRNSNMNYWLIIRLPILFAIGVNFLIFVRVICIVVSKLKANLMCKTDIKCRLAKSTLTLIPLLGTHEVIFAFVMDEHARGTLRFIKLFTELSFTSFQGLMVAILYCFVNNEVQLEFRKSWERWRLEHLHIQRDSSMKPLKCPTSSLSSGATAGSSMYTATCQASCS
Assay: GLP-1R cAMP assay of peptides (Tables 10, 14, 15)
Assay type: cell-based
[1] = Table 14, peptide amides, read-out: cAMP EC50
[2] = Table 10, read-out: GLP-1R CAMP EC50

EC50 [1]	GLP-1R CAMP Max (Table 10)	EC50 [2]	EC50 (Table 15, peptide acids, read-out: cAMP EC50)	Structure (SMILES)
1.19 nM	–	–	–	CCc1cc(OCCCCn2cc(COCCOCCOCCOCCOCCOCCOCCOCCNC(=O)CC[C@H](NC(=O)[C@H](CC(C)C)NC(=O)[C@@H](N)CC(C)C)C(=O)O)nn2)ccc1-c1ccc(C[C@H](NC(=O)[C@H](CC(=O)O)NC(=O)[C@H](CO)NC(=O)[C@@H](NC(=O)[C@](C)(Cc2ccccc2F)NC(=O)[C@@H](NC(=O)CNC(=O)[C@H](Cc2nnn[nH]2)NC(=O)C(C)(C)C(=O)NCCc2cnc[nH]2)[C@@H](C)O)[C@@H](C)O)C(=O)N[C@@H](CCCc2cc(C)cc(C)c2)C(N)=O)cc1 [M6296] ({Malonyl(2,2-Me2,histaminyl)}-[Ala(1H-tetrazol-5-yl)]GT[αMePhe(2-F)]TSD[X2]([γGlu-Leu-Leu])[Nva(5-(3,5-Me2Ph))]-NH2)
351 nM	–	–	–	CCc1cc(OCCCCn2cc(COCCOCCOCCOCCOCCOCCOCCOCCN)nn2)ccc1-c1ccc(C[C@H](NC(=O)[C@H](CC(=O)O)NC(=O)[C@H](CO)NC(=O)[C@@H](NC(=O)[C@](C)(Cc2ccccc2F)NC(=O)[C@@H](NC(=O)CNC(=O)[C@@H](N)Cc2nnn[nH]2)[C@@H](C)O)[C@@H](C)O)C(=O)N[C@@H](CCCc2cc(C)cc(C)c2)C(N)=O)cc1 [M6295] (H-[Ala(1H-tetrazol-5-yl)]GT[αMePhe(2-F)]TSD[X1][Nva(5-(3,5-Me2Ph))]-NH2)
–	29.24%	> 1000 nM	> 1000 nM	CCc1cc(OCCCCn2cc(COCCOCCOCCOCCOCCOCCOCCOCCNC(=O)CC[C@H](N)C(=O)O)nn2)ccc1-c1ccc(C[C@H](NC(=O)[C@H](CC(=O)O)NC(=O)[C@H](CO)NC(=O)[C@@H](NC(=O)C(C)(Cc2ccccc2F)NC(=O)[C@@H](NC(=O)CNC(=O)[C@H](Cc2nn[nH]n2)NC(=O)C(C)(C)C(=O)NCCc2cnc[nH]2)[C@@H](C)O)[C@@H](C)O)C(=O)O)cc1 (stereo partly drawn) [M6322]

Further lines, the compound ahead of its results:

Structure (SMILES)	EC50 [1]	GLP-1R CAMP Max (Table 10)	EC50 [2]	EC50 (Table 15, peptide acids, read-out: cAMP EC50)
C[C@@H](O)[C@H](NC(=O)CNC(=O)[C@H](Cc1nn[nH]n1)NC(=O)C(C)(C)C(=O)NCCc1cnc[nH]1)C(=O)N[C@@](C)(Cc1ccccc1F)C(=O)O [AA10-AA9-AA8-AA7-AA6-OH] ({Malonyl(2,2-Me2,histaminyl)}-[Ala(1H-tetrazol-5-yl)]GT[αMePhe(2-F)]-OH)	–	−1.13%	> 1000 nM	–
CCc1cc(OCCCCN=[N+]=[N-])ccc1-c1ccc(C[C@H](NC(=O)[C@H](CC(=O)O)NC(=O)[C@H](COC(C)(C)C)NC(=O)[C@@H](NC(=O)C(C)(Cc2ccccc2F)NC(=O)[C@@H](NC(=O)CNC(=O)[C@H](Cc2nnn[nH]2)NC(=O)C(C)(C)C(=O)NCCc2cnc[nH]2)[C@@H](C)O)[C@@H](C)O)C(=O)N[C@@H](CCCc2cc(C)cc(C)c2)C(=O)O)cc1 (stereo partly drawn) ({Malonyl(2,2-Me2,histaminyl)}-[Ala(1H-tetrazol-5-yl)]GT[ξαMePhe(2-F)]TS(tBu)D[Bip(2'-Et,4'-O(CH2)4N3)][Nva(5-(3,5-Me2Ph))]-OH)	–	122.44%	2.94 nM	–
CCc1cc(OCCCCn2cc(COCCOCCOCCOCCOCCOCCOCCOCCOCCOCCOCCOCCN)nn2)ccc1-c1ccc(C[C@H](NC(=O)[C@H](CC(=O)O)NC(=O)[C@H](CO)NC(=O)[C@@H](NC(=O)[C@](C)(Cc2ccccc2F)NC(=O)[C@@H](NC(=O)CNC(=O)[C@H](Cc2nn[nH]n2)NC(=O)C(C)(C)C(=O)NCCc2c[nH]cn2)[C@@H](C)O)[C@@H](C)O)C(=O)N[C@@H](CCCc2cc(C)cc(C)c2)C(N)=O)cc1 ({Malonyl(2,2-Me2,histaminyl)}-[Ala(1H-tetrazol-5-yl)]GT[αMePhe(2-F)]TSD[X3][Nva(5-(3,5-Me2Ph))]-NH2)	1.89 nM	–	–	–
CC(C)(C(=O)NCCc1cnc[nH]1)C(=O)N[C@@H](Cc1nn[nH]n1)C(=O)NCC(=O)O [AA10-AA9-AA8-OH]	–	−1.39%	> 1000 nM	–
CCc1cc(OCCCCN=[N+]=[N-])ccc1-c1ccc(C[C@H](NC(=O)[C@H](CC(=O)O)NC(=O)[C@H](CO)NC(=O)[C@@H](NC(=O)C(C)(Cc2ccccc2F)NC(=O)[C@@H](NC(=O)CNC(=O)[C@H](Cc2nnn[nH]2)NC(=O)C(C)(C)C(=O)NCCc2cnc[nH]2)[C@@H](C)O)[C@@H](C)O)C(=O)O)cc1 (stereo partly drawn) [AA10-AA9-AA8-AA7-AA6-AA5-AA4-AA3-AA2-OH]	–	97.92%	51.2 nM	–
C[C@@H](O)[C@H](NC(=O)CNC(=O)[C@H](Cc1nn[nH]n1)NC(=O)C(C)(C)C(=O)NCCc1cnc[nH]1)C(=O)N[C@@](C)(Cc1ccccc1F)C(=O)N[C@H](C(=O)N[C@@H](CO)C(=O)N[C@@H](CC(=O)O)C(=O)O)[C@@H](C)O [AA10-AA9-AA8-AA7-AA6-AA5-AA4-AA3-OH]	–	−0.25%	> 1000 nM	–
CCc1cc(OCCCCn2cc(COCCOCCOCCOCCOCCOCCOCCOCCN)nn2)ccc1-c1ccc(C[C@H](NC(=O)[C@H](CC(=O)O)NC(=O)[C@H](CO)NC(=O)[C@@H](NC(=O)[C@](C)(Cc2ccccc2F)NC(=O)[C@@H](NC(=O)CNC(=O)[C@H](Cc2nnn[nH]2)NC(=O)C(C)(C)C(=O)NCCc2cnc[nH]2)[C@@H](C)O)[C@@H](C)O)C(N)=O)cc1 ({Malonyl(2,2-Me2,histaminyl)}-[Ala(1H-tetrazol-5-yl)]GT[αMePhe(2-F)]TSD[X1]-NH2)	–	104.11%	59.6 nM	–
